Data: patent publication EP3311800B1, “COMPOSITION COMPRISING MICROSTRUCTURES FOR THE CONTROLLED RELEASE OF OZONIZED OIL” (Project & Communications, Ltd., priority 2016, dated 2018)

Tested on: fibroblast L929
Assay: cytotoxicity test (MTT test), UNI EN ISO 10993-5:2009
Assay type: cell-based
Details: Mus musculus
Text: The four compositions indicated above were subjected to a cytotoxicity test (MTT test).
As is known, the cytotoxicity test (MTT test) is a reduction test used for determining the level of metabolic activity in the eukaryote cells. This is one of the most widely used cytotoxicity tests, thanks to its simplicity, accuracy and reproducibility. The chemical base of the test is the reduction of MTT, a tetrazole compound [3-(4,5-dimethylthiazol-2-yl)-2,5-diphenyltetrazolium bromide]. MTT is a yellow substance which, after reduction, forms a purple-colored formazan salt.
The process mainly takes place in the cytoplasm and secondarily in the mitochondria and at the level of the plasmatic membrane. The activity of the reductase that catalyze the reaction is highly dependent on the concentration of the intracellular NADH and NADPH, whose levels are associated with the availability of extracellular glucose. The mitochondrial succinate dehydrogenase and the cytochrome C also take part in the reduction of MTT. Consequently, any substance or treatment that interferes with these enzymes or with the glycolysis would influence the reduction of MTT and would therefore alter the results of the cell count. As a result of these metabolic reduction processes, dark purple crystals of formazan are formed within a few hours. These crystals can be solubilized in various organic solvents, mainly alcohols. An increase or a reduction in the number of cells causes an analogous variation in the quantity of formazan formed, thus giving an indication of the degree of cytotoxicity of the product tested.
The MTT test was carried out on cultures of fibroblast L929 treated with the extract (transfer liquid as such obtained after overnight incubation of the composition under examination in the culture medium) and subsequent dilutions 1:2. The same procedure was also applied for the negative reference (internal standard), whereas the positive control (SDS) was tested at concentrations ranging from 0.00313 to 0.4 mg/ml. Sodium dodecyl sulfate (SDS), a substance with known cytotoxic effects was used as positive control, whereas a non-cytotoxic internal standard was used as negative reference. The analysis was carried out according to the ISO standard for the biological evaluation of medical devices UNI EN ISO 10993-5:2009 (E) .
More specifically, an adequate number of cells was seeded in 96-well plates. Once a semi-confluent monolayer had been reached, the cells were treated with the various concentrations of the sample tested and standards and incubated for 24 hours under standard conditions. Non-treated cells kept in the culture medium represent the negative controls. After 24 hours of contact, the plates were examined under a phase contrast microscope, the medium was carefully removed from each well, the cells were then treated with MTT (1 mg/ml) and incubated for 3 hours under standard conditions. At the end of this period, the solution of MTT was eliminated and 100 µl of isopropanol were added to each well to dissolve the formazan crystals formed. The absorbance (optical density, OD) was determined by reading the spectrophotometer at a wavelength of 540 nm.
The inhibition of the cell vitality at each tested concentration was expressed as a percentage with respect to the negative control (non-treated cells) according to the following formula: Inhibition % = 100−[ODX /ODNC )×100] […]
The values thus calculated were charted against the same concentrations. […]

Structure (SMILES): CCCCCCCCCCCCOS(=O)(=O)[O-].[Na+] [SDS, Sodium dodecyl sulfate]
- inhibition at 50 µg/mL (Concentration 0.05 mg/ml, 24 hours, read-out: Cell vitality inhibition (%)): 66.5%
- inhibition at 100 µg/mL (Concentration 0.1 mg/ml, 24 hours, read-out: Cell vitality inhibition (%)): 97.2%
- inhibition at 200 µg/mL (Concentration 0.2 mg/ml, 24 hours, read-out: Cell vitality inhibition (%)): 97.5%
- inhibition at 400 µg/mL (Concentration 0.4 mg/ml, 24 hours, read-out: Cell vitality inhibition (%)): 96.8%
- IC50 (concentration inhibiting cell vitality by 50%, extrapolated from concentration/response curve): 46 µg/mL
